# What was measured:
# Experiment in all cases: KINOMEscan competition binding
# [1] = molecular target: ABL1 (human), P00519 [H396P]
# [2] = molecular target: JAK2 JH1 catalytic (human) (UniProt O60674)
# CDK5 (human) = CDK5 (human) (UniProt Q00535)
# RPS6KA2 KD2 (human) = RPS6KA2 KD2 (human) (UniProt Q15349)
# PIM3 (human) = PIM3 (human) (UniProt Q86V86)
# PIM1 (human) = PIM1 (human) (UniProt P11309)
# EPHA7 (human) = EPHA7 (human) (UniProt Q15375)
# MINK1 (human) = MINK1 (human) (UniProt Q8N4C8)
# [3] = molecular target: MET (human), P08581 [Y1235D]
# BMP2K (human) = BMP2K (human) (UniProt Q9NSY1)
# [4] = molecular target: BRAF (human), P15056 [V600E]
# [5] = molecular target: TYK2 JH2 pseudokinase (human) (UniProt P29597)
# AURKC (human) = AURKC (human) (UniProt Q9UQB9)
# RPS6KA4 KD1 (human) = RPS6KA4 KD1 (human) (UniProt O75676)
# FGR (human) = FGR (human) (UniProt P09769)
# MYLK (human) = MYLK (human) (UniProt Q15746)
# Sequence of MYLK (human) (Q15746 whole entry, looked up): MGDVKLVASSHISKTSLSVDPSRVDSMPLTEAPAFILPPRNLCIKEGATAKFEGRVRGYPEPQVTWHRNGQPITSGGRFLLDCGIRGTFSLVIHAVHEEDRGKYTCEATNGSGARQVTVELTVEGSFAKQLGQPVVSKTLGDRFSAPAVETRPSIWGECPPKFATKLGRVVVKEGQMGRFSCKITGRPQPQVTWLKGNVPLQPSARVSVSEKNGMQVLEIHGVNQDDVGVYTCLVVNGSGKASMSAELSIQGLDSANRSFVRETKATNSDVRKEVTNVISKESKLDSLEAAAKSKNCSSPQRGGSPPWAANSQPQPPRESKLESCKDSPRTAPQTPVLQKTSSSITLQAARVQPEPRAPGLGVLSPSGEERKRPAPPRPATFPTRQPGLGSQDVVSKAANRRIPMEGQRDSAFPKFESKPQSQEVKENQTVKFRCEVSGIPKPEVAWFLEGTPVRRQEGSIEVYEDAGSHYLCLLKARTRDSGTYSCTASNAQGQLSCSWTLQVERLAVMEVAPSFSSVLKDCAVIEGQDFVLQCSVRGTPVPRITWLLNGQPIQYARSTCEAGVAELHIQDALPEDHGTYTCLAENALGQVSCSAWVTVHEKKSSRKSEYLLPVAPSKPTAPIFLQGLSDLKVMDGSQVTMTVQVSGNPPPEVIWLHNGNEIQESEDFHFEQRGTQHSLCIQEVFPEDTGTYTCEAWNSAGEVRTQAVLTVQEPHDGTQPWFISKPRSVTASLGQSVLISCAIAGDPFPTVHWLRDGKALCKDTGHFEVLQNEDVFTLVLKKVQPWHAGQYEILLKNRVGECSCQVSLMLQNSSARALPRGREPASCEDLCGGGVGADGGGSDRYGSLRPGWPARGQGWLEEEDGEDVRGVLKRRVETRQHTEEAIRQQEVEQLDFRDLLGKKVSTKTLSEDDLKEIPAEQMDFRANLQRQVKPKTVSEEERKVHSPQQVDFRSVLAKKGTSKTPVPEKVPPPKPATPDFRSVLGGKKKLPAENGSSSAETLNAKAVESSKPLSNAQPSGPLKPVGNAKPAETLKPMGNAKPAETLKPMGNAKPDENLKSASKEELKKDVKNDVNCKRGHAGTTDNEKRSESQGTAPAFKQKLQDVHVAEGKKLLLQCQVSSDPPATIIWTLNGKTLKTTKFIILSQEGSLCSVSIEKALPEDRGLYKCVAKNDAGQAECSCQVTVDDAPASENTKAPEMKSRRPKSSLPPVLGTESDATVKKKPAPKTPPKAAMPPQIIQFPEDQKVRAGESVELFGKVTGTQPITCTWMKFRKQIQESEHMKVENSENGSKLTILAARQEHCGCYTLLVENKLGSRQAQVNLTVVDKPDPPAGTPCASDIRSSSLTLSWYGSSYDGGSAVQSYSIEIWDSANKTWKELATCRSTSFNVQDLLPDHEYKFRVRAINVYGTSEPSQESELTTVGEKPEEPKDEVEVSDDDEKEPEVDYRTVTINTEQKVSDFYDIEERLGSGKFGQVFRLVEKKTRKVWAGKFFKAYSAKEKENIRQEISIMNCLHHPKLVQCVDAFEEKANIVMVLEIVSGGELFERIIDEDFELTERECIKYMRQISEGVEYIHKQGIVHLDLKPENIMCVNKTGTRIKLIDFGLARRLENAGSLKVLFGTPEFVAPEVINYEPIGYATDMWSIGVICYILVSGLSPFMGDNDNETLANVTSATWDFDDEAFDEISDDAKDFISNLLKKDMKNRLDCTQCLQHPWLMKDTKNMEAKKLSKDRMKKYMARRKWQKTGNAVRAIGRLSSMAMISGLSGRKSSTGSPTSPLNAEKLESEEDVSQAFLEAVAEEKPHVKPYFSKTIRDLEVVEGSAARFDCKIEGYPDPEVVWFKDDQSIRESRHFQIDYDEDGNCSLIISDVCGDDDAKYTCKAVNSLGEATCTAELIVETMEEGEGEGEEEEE
# PIM2 (human) = PIM2 (human) (UniProt Q9P1W9)
# MUSK (human) = MUSK (human) (UniProt O15146)
# CDKL3 (human) = CDKL3 (human) (UniProt Q8IVW4)
# MET (human) = MET (human) (UniProt P08581)
# RIPK1 (human) = RIPK1 (human) (UniProt Q13546)
# TEK (human) = TEK (human) (UniProt Q02763)
# NLK (human) = NLK (human) (UniProt Q9UBE8)
# Sequence of NLK (human) (Q9UBE8 whole entry, looked up): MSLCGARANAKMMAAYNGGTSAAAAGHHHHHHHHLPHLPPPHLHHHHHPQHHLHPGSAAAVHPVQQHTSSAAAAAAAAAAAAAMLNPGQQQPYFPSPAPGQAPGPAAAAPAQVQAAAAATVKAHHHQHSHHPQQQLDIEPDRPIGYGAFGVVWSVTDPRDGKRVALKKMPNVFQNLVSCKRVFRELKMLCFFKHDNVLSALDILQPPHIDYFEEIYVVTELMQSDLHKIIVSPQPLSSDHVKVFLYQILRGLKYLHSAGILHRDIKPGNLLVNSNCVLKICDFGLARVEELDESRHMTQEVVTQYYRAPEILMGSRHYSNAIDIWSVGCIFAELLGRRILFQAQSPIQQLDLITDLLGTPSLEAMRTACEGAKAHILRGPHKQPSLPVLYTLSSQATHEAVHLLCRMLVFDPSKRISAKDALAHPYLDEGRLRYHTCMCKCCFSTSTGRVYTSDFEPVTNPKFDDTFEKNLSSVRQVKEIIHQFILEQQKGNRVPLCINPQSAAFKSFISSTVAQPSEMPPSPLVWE
# [6] = molecular target: FLT3 (human), P36888 [ITD]
# Sequence of FLT3 (human), P36888 [ITD] (P36888 whole entry, looked up, change not shown): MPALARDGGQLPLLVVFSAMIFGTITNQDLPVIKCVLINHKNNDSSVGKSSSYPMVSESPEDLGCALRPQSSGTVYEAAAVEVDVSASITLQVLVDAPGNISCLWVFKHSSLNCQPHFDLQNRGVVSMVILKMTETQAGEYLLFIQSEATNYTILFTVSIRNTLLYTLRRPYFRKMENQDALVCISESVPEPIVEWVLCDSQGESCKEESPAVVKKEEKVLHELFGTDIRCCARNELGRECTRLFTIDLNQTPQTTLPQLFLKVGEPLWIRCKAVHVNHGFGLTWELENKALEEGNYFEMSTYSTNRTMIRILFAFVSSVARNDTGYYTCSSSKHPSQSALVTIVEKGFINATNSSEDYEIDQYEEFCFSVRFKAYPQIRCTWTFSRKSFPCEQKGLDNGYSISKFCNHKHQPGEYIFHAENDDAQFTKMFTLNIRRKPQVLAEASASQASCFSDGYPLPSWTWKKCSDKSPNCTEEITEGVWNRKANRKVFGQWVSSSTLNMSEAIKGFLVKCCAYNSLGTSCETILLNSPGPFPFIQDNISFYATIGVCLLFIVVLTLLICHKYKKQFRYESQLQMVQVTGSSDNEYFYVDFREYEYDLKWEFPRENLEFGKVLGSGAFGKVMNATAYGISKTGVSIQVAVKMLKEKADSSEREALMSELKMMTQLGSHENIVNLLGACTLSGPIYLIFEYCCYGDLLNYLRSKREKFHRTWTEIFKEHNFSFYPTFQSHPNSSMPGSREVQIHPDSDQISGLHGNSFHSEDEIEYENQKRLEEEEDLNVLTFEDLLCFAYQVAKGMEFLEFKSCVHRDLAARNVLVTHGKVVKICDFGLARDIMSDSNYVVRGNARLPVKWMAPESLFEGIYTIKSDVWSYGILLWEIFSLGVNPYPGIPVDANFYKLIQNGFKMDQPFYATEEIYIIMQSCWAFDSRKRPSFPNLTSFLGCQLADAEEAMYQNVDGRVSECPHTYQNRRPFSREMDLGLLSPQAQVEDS
# EPHB3 (human) = EPHB3 (human) (UniProt P54753)
# HIPK3 (human) = HIPK3 (human) (UniProt Q9H422)
# TYRO3 (human) = TYRO3 (human) (UniProt Q06418)
# MAPK15 (human) = MAPK15 (human) (UniProt Q8TD08)
# Sequence of MAPK15 (human) (Q8TD08 whole entry, looked up): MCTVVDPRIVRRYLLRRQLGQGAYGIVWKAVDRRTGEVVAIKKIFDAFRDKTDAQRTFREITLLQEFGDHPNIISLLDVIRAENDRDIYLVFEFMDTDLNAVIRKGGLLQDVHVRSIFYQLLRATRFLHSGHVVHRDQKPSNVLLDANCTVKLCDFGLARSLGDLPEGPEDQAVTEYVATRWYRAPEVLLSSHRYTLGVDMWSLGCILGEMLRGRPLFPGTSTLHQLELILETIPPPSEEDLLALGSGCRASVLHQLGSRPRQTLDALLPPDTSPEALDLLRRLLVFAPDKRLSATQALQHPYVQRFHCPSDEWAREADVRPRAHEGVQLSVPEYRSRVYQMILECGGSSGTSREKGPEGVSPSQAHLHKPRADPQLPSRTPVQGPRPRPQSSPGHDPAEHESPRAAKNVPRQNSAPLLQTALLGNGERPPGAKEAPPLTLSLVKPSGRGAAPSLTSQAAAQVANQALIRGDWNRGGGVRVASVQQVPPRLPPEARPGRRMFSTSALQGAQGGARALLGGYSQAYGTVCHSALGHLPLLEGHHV
# ERN1 (human) = ERN1 (human) (UniProt O75460)
# Sequence of ERN1 (human) (O75460 whole entry, looked up): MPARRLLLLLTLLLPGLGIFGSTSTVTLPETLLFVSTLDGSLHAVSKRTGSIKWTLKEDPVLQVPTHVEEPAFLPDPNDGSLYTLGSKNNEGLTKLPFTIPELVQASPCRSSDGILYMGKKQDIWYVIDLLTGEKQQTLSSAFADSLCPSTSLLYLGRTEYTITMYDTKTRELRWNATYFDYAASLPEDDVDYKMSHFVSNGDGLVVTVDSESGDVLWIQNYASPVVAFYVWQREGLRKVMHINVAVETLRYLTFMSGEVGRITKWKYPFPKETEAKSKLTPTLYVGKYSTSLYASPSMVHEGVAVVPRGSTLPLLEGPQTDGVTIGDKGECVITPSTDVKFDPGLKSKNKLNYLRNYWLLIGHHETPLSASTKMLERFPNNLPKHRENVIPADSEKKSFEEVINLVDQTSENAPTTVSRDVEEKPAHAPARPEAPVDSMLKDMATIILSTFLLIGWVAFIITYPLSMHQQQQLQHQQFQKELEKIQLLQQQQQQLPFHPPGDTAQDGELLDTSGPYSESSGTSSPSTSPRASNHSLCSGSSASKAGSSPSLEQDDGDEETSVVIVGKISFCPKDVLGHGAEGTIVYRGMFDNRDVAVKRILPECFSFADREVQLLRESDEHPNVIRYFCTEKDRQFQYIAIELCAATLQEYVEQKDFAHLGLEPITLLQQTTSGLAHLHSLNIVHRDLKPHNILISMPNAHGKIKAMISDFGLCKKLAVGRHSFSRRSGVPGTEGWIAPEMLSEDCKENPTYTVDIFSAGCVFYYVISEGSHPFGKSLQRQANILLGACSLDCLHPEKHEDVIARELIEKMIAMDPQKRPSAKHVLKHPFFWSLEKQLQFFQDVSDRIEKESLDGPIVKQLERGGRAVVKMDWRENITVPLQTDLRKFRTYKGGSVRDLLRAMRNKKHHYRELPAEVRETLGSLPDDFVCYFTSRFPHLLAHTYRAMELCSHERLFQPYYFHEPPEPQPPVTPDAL
# PRKAA1 (human) = PRKAA1 (human) (UniProt Q13131)
# PTK2 (human) = PTK2 (human) (UniProt Q05397)
# PTK6 (human) = PTK6 (human) (UniProt Q13882)
# CDK3 (human) = CDK3 (human) (UniProt Q00526)
# TNK1 (human) = TNK1 (human) (UniProt Q13470)
# [7] = molecular target: ABL1 (human), P00519 [T315I]
# FRK (human) = FRK (human) (UniProt P42685)
# [8] = molecular target: PIK3CA (human), P42336 [H1047Y]
# FGFR1 (human) = FGFR1 (human) (UniProt P11362)
# FGFR4 (human) = FGFR4 (human) (UniProt P22455)
# CHEK2 (human) = CHEK2 (human) (UniProt O96017)
structure (smiles),measurement,setting,value
COc1cc2ncnc(Oc3cccc(NC(=O)Nc4cc(C(C)(C)C(F)(F)F)on4)c3)c2cc1OC,Kd,[1],11 nM
same,Kd,[2],14000 nM
same,Kd,CDK5 (human),11000 nM
same,Kd,RPS6KA2 KD2 (human),33000 nM
same,Kd,PIM3 (human),13000 nM
same,Kd,PIM1 (human),29000 nM
same,Kd,EPHA7 (human),71 nM
same,Kd,MINK1 (human),360 nM
same,Kd,[3],260 nM
same,Kd,BMP2K (human),33000 nM
same,Kd,[4],14 nM
same,Kd,[5],16000 nM
same,Kd,AURKC (human),10000 nM
same,Kd,RPS6KA4 KD1 (human),1900 nM
same,Kd,FGR (human),110 nM
same,Kd,MYLK (human),27000 nM
same,Kd,PIM2 (human),26000 nM
same,Kd,MUSK (human),34 nM
same,Kd,CDKL3 (human),2000 nM
same,Kd,MET (human),510 nM
same,Kd,RIPK1 (human),3200 nM
same,Kd,TEK (human),130 nM
same,Kd,NLK (human),270 nM
same,Kd,[6],22 nM
same,Kd,EPHB3 (human),3800 nM
same,Kd,HIPK3 (human),120 nM
same,Kd,TYRO3 (human),1500 nM
same,Kd,MAPK15 (human),94 nM
same,Kd,ERN1 (human),19000 nM
same,Kd,PRKAA1 (human),8700 nM
same,Kd,PTK2 (human),7500 nM
same,Kd,PTK6 (human),200 nM
same,Kd,CDK3 (human),26000 nM
same,Kd,TNK1 (human),150 nM
same,Kd,[7],2.6 nM
same,Kd,FRK (human),9.6 nM
same,Kd,[8],37000 nM
same,Kd,FGFR1 (human),840 nM
same,Kd,FGFR4 (human),450 nM
same,Kd,CHEK2 (human),8700 nM

# — the kinase profiling compilation of Christmann-Franck et al. (2016)
